These are literature values, as cited in US20080064694A1, “Multi-Phase Release Methscopolamine Compositions” (Auriga Laboratories, Inc., priority 2006, published 2008).

Entries after “also recorded” stand apart in the source; their conditions may differ.

The conditions of this data set: following administration of methscopolamine bromide.

For “[7(S)-( 1α, 2β, 4β, 5α, 7β)]-7-(3-hydroxy-1oxo-2-phenylpropoxy)-9,9-dimethyl-3-Oxo-9-azoniatricyclo[3.3.1.0]nonane [Methscopolamine bromide]”, the adverse reactions observed result was “Tachycardia, palpitation; also recorded: Severe allergic reaction or drug idiosyncrasies including anaphylaxis; also recorded: Headaches, nervousness, mental confusion, drowsiness, dizziness; also recorded: Blurred vision, dilation of the pupil, cycloplegia, increased ocular tension, loss of taste; also recorded: Urinary hesitancy and retention; also recorded: Nausea, vomiting, constipation, bloated feeling; also recorded: Decreased sweating, urticaria and other dermal manifestations; also recorded: Xerostomia, weakness, insomnia, impotence, suppression of lactation”.
